The text below walks through data of patent US7056924B2, “Substituted heterocyclic compounds” (CV Therapeutics, Inc., priority 2002, dated 2006).

pIC50: −log10 of the molar value.

One may read the pIC50 as −log10 of the IC50, conventionally taken in molar units.

One assay has as its system Palmitoyl CoA oxidation in rat heart mitochondria. Put plainly: Mitochondrial assay: Palmitoyl CoA oxidation. It is filed as biochemical. Conditions: 16 microM 1-C14 palmitoyl CoA, 15 min at 30° C., read-out: Effect of Compounds of the Invention on Palmitoyl CoA Oxidation (IC50). As to the method:
Rat heart mitochondria were isolated by the method of Nedergard and Cannon (Methods in Enzymol. 55, 3, 1979).
Palmitoyl CoA oxidation—The Palmitoyl CoA oxidation was carried out in a total volume of 100 micro liters containing the following agents: 110 mM KCl, 33 mM Tris buffer at pH 8, 2 mM KPi, 2 mM MgCl2, 0.1 mM EDTA, 14.7 microM defatted BSA, 0.5 mM malic acid, 13 mM carnitine, 1 mM ADP, 52 micrograms of mitochondrial protein, and 16 microM 1-C14 palmitoyl CoA (Sp. Activity 60 mCi/mmole; 20 microCi/ml, using 5 microliters per assay). The compounds of this invention were added in a DMSO solution at the following concentrations: 100 micro molar, 30 micro molar, and 3 micro molar. In each assay, a DMSO control was used. After 15 min at 30° C., the enzymatic reaction was centrifuged (20,000 g for 1 min), and 70 microliters of the supernatant was added to an activated reverse phase silicic acid column (approximately 0.5 ml of silicic acid). The column was eluted with 2 ml of water, and 0.5 ml of the eluent was used for scintillation counting to determine the amount of C^14 trapped as C^14 bicarbonate ion.
For the compound “3-{(2R)-2-methyl-4-[(5-phenylisoxazol-3-yl)methyl]piperazinyl}(2S)-1-(2-methylbenzothiazol-5-yloxy)propan-2-ol”, the negative-log IC50 (pIC50) was 6.36. Turning to `Cc1nc2cc(OC[C@H](O)CN3CCN(Cc4nc(-c5ccc(Cl)cc5Cl)no4)C[C@@H]3C)ccc2s1` [(2R)-1-((2S)-4-{[3-(2,4-dichlorophenyl)(1,2,4-oxadiazol-5-yl)]methyl}-2-methylpiperazinyl)-3-(2-methylbenzothiazol-5-yloxy)propan-2-ol], the pIC50 is 7.00. On the same count and under the same terms, to `Cc1nc2cc(OC[C@H](O)CN3CCN(Cc4nnc(-c5ccc(C(F)(F)F)cc5)o4)C[C@@H]3C)ccc2s1` [(2R)-1-[(2S)-2-methyl-4-({5-[4-(trifluoromethyl)phenyl](1,3,4-oxadiazol-2-yl)}methyl)piperazinyl]-3-(2-methylbenzothiazol-5-yloxy)propan-2-ol] belongs 6.28; to `Cc1nc2cc(OC[C@H](O)CN3CCN(Cc4nc5cc(-c6ccccc6)ccc5o4)CC3)ccc2s1` [(2R)-3-(2-methylbenzothiazol-5-yloxy)-1-{4-[(5-phenylbenzoxazol-2-yl)methyl]piperazinyl}propan-2-ol], 5.44. Same read-out and setting: to `Cc1nc2cc(OC[C@H](O)CN3CCN(Cc4cc(-c5ccc(Cl)cc5)on4)C[C@@H]3C)ccc2s1` [(2R)-3-[(2S)-2-methyl-4-({5-[4-chlorophenyl]isoxazol-3-yl}methyl)piperazinyl]-1-(2-methylbenzothiazol-5-yloxy)propan-2-ol] belongs 6.85; to “(2R)-1-(4-{[3-(2,4-dichlorophenyl)(1,2,4-oxadiazol-5-yl)]methyl}piperazinyl)-3-(2-methylbenzothiazol-5-yloxy)propan-2-ol”, 5.94; to “(2R)-1-(4-{[3-(2-chlorophenyl)(1,2,4-oxadiazol-5-yl)]methyl}piperazinyl)-3-(2-methylbenzothiazol-5-yloxy)propan-2-ol”, 5.87. On the same count and under the same terms, with “(2R)-1-(4-{[3-(2-fluorophenyl)(1,2,4-oxadiazol-5-yl)]methyl}piperazinyl)-3-(2-methylbenzothiazol-5-yloxy)propan-2-ol” the figure was 5.24. Consider “(2R)-1-(4-{[5-(2-chlorophenyl)(1,2,4-oxadiazol-3-yl)]methyl}piperazinyl)-3-(2-methylbenzothiazol-5-yloxy)propan-2-ol”, for which the negative logarithm of the IC50 (pIC50) was 5.94. The same measure, in the same setting: to “(2R)-1-(4-{[5-(2-chlorophenyl)(1,3,4-oxadiazol-2-yl)]methyl}piperazinyl)-3-(2-methylbenzothiazol-5-yloxy)propan-2-ol” belongs 5.68; to “(2R)-1-(4-{[5-(4-chlorophenyl)(1,3,4-oxadiazol-2-yl)]methyl}piperazinyl)-3-(2-methylbenzothiazol-5-yloxy)propan-2-ol”, 5.07; to “(2R)-1-(4-{[5-(4-methoxyphenyl)(1,3,4-oxadiazol-2-yl)]methyl}piperazinyl)-3-(2-methylbenzothiazol-5-yloxy)propan-2-ol”, 5.05.

Consider “(2R)-1-((2S)-2-methyl-4-{[5-(4-methylphenyl)(1,3,4-oxadiazol-2-yl)]methyl}piperazinyl)-3-(2-methylbenzothiazol-5-yloxy)propan-2-ol”, for which the negative logarithm of the IC50 (pIC50) was 6.27. Still for that read-out and setting: with “(2R)-1-((2S)-2-methyl-4-{[5-(4-phenylphenyl)(1,3,4-oxadiazol-2-yl)]methyl}piperazinyl)-3-(2-methylbenzothiazol-5-yloxy)propan-2-ol” the figure was 5.93; with “(2R)-1-((2S)-4-{[5-(4-chlorophenyl)(1,3,4-oxadiazol-2-yl)]methyl}-2-methylpiperazinyl)-3-(2-methylbenzothiazol-5-yloxy)propan-2-ol”, 6.16; with “(2R)-1-((3S)-4-{[2-(4-chlorophenyl)(1,3-thiazol-4-yl)]methyl}-3-methylpiperazinyl)-3-(2-methylbenzothiazol-5-yloxy)propan-2-ol”, 6.39. Still for that read-out and setting: to “(2R)-1-((3S)-4-{[5-(2,4-dichlorophenyl)(1,2,4-oxadiazol-3-yl)]methyl}-3-methylpiperazinyl)-3-(2-methylbenzothiazol-5-yloxy)propan-2-ol” belongs 6.17; to “(2R)-1-[4-({5-[4-(tert-butyl)phenyl](1,3,4-oxadiazol-2-yl)}methyl)piperazinyl]-3-(2-methylbenzothiazol-5-yloxy)propan-2-ol”, 5.96. On the same count and under the same terms, to “(2R)-1-[(2S)-2-methyl-4-({5-[3-(trifluoromethyl)phenyl](1,3,4-oxadiazol-2-yl)}methyl)piperazinyl]-3-(2-methylbenzothiazol-5-yloxy)propan-2-ol” belongs 5.98; to “(2R)-1-[(2S)-4-({5-[4-(dimethylamino)phenyl](1,3,4-oxadiazol-2-yl)}methyl)-2-methylpiperazinyl]-3-(2-methylbenzothiazol-5-yloxy)propan-2-ol”, 5.83; to “(2R)-1-[(2S)-4-({5-[4-(tert-butyl)phenyl](1,3,4-oxadiazol-2-yl)}methyl)-2-methylpiperazinyl]-3-(2-methylbenzothiazol-5-yloxy)propan-2-ol”, 6.41. Take “(2R)-1-[(3S)-3-methyl-4-({2-[4-(trifluoromethyl)phenyl](1,3-thiazol-4-yl)}methyl)piperazinyl]-3-(2-methylbenzothiazol-5-yloxy)propan-2-ol”: the pIC50 is 6.68. The same measure, in the same setting: to “(2R)-1-[(3S)-3-methyl-4-({5-[4-(trifluoromethyl)phenyl](1,2,4-oxadiazol-3-yl)}methyl)piperazinyl]-3-(2-methylbenzothiazol-5-yloxy)propan-2-ol” belongs 5.33. Consider “(2R)-1-{(2S)-2-methyl-4-[(5-(2-naphthyl)(1,3,4-oxadiazol-2-yl))methyl]piperazinyl}-3-(2-methylbenzothiazol-5-yloxy)propan-2-ol”, for which the pIC50 is 5.94.

In the case of “(2R)-1-{(2S)-2-methyl-4-[(5-phenyl(1,3,4-oxadiazol-2-yl))methyl]piperazinyl}-3-(2-methylbenzothiazol-5-yloxy)propan-2-ol”, the negative logarithm of the IC50 (pIC50) was 5.80.

For the compound “(2R)-1-{(3S)-3-methyl-4-[(2-phenyl(1,3-thiazol-4-yl))methyl]piperazinyl}-3-(2-methylbenzothiazol-5-yloxy)propan-2-ol”, the pIC50 is 6.47. For the compound “(2R)-3-(2-methylbenzothiazol-5-yloxy)-1-(4-{[3-(2-methylphenyl)(1,2,4-oxadiazol-5-yl)]methyl}piperazinyl)propan-2-ol”, the pIC50 was 6.64. Regarding “(2R)-3-(2-methylbenzothiazol-5-yloxy)-1-(4-{[5-(2-methylphenyl)(1,2,4-oxadiazol-3-yl)]methyl}piperazinyl)propan-2-ol”, the negative-log IC50 (pIC50) was 5.93. Still for that read-out and setting: to “(2R)-3-(2-methylbenzothiazol-5-yloxy)-1-(4-{[5-(4-methylphenyl)(1,3,4-oxadiazol-2-yl)]methyl}piperazinyl)propan-2-ol” belongs 4.97. Same read-out and setting: to “(2R)-3-(2-methylbenzothiazol-5-yloxy)-1-(4-{[5-(4-phenylphenyl)(1,3,4-oxadiazol-2-yl)]methyl}piperazinyl)propan-2-ol” belongs 6.00.

For the compound “(2R)-3-(2-methylbenzothiazol-5-yloxy)-1-[4-({5-[3-(trifluoromethyl)phenyl](1,3,4-oxadiazol-2-yl)}methyl)piperazinyl]propan-2-ol”, the negative logarithm of the IC50 (pIC50) is 5.20. Same read-out and setting: with “(2R)-3-(2-methylbenzothiazol-5-yloxy)-1-[4-({5-[4-(trifluoromethyl)phenyl](1,3,4-oxadiazol-2-yl)}methyl)piperazinyl]propan-2-ol” the figure was 5.32.

Regarding “(2R)-3-(2-methylbenzothiazol-5-yloxy)-1-{4-[(2-phenyl(1,3-thiazol-4-yl))methyl]piperazinyl}propan-2-ol”, the negative logarithm of the IC50 (pIC50) is 5.57. On to “(2R)-3-(2-methylbenzothiazol-5-yloxy)-1-{4-[(5-phenyl(1,3,4-oxadiazol-2-yl))methyl]piperazinyl}propan-2-ol”, for which the pIC50 is 5.96.

On to “(2R)-3-((2S)-4-{[5-(2-chlorophenyl)(1,3,4-oxadiazol-2-yl)]methyl}-2-methylpiperazinyl)-1-(2-methylbenzothiazol-5-yloxy)propan-2-ol”, for which the negative logarithm of the IC50 (pIC50) was 6.47. Still for that read-out and setting: with “(2R)-3-((2S)-4-{[5-(3,4-dichlorophenyl)isoxazol-3-yl]methyl}-2-methylpiperazinyl)-1-(2-methylbenzothiazol-5-yloxy)propan-2-ol” the figure was 6.14; with “(2R)-3-((2S)-4-{[5-(4-methoxyphenyl)(1,3,4-oxadiazol-2-yl)]methyl}-2-methylpiperazinyl)-1-(2-methylbenzothiazol-5-yloxy)propan-2-ol”, 5.91. Same read-out and setting: with “(2R)-3-((3S)-3-methyl-4-{[5-(4-phenylphenyl)isoxazol-3-yl]methyl}piperazinyl)-1-(2-methylbenzothiazol-5-yloxy)propan-2-ol” the figure was 6.01.

Still in this assay, the particulars now being: at 30 uM.
On to “(2R)-3-(2-methylbenzothiazol-5-yloxy)-1-[4-({5-[3-(trifluoromethyl)phenyl](1,2,4-oxadiazol-3-yl)}methyl)piperazinyl]propan-2-ol”, for which the “Effect on Palmitoyl CoA Oxidation, % at 30 uM” value came out at 58% at 30 uM.
